From US11034725B2, “Compositions and methods for treating cardiovascular disease” (Genentech, Inc., priority 2016, dated 2021) come the findings set out here.

The target in assay [1] is T1, PCSK9Δhelix (Homo sapiens, UniProt Q8NBP7).
T1 construct: Human PCSK9 construct M1-Q692 with an engineered TEV site (residue deletion Y166, R167); made in house; host or cells: CHO
As to the kind of experiment: Surface plasmon resonance biosensor-based affinity analysis (Example 4). The class given is binding. The conditions noted are these: for Kd: Table 7, Target PCSK9Δhelix, SPR at 20° C., read-out: Kd.

Assay [2] has as its system His-EGF(A)-Fc. As to the kind of experiment: His-EGF(A)-Fc TR-FRET counterscreen. A general note: Time-resolved FRET reads energy transfer from a long-lived donor to a nearby acceptor.
The target in assay [3] is T1, PCSK9Δhelix. As to the kind of experiment: PCSK9Δhelix/Ab20 TR-FRET binding assay.
Assay [4] deals with PCSK9 (Homo sapiens, UniProt Q8NBP7). As to the kind of experiment: PCSK9/EGF(A) TR-FRET binding assay. The conditions noted are these: for IC50: TR-FRET, read-out: PCSK9/EGF(A) IC50.
Assay [5] deals with T2, PCSK9-R167A:R215A:R218A (PCSK9-AAA) (Homo sapiens, UniProt Q8NBP7, R167A/R215A/R218A).
T2 construct: made in house; host or cells: CHO (transient)
As to the kind of experiment: FXIa cleavage assay of the P′ helix of PCSK9-AAA. It counts as biochemical. The conditions noted are these: immunoblot with anti-N-terminal peptide antibody. How it is done: The PCSK9-AAA mutant (2.6 μM) was incubated with 50 nM FXIa (Haematologic Technologies) in Tris buffer (50 mM Tris, 150 mM NaCl, 4 mM CaCl2, pH 8.0) at room temperature for the indicated time periods. […] After SDS-PAGE of the samples, proteins were transferred to a nitrocellulose membrane using iBlot (Invitrogen). Proteins were then probed with a polyclonal rabbit antibody (1:3000) raised against the PCSK9 N-terminal peptide (^153[…]^168 (SEQ ID NO: 5)), followed with HRP-conjugated donkey anti-rabbit antibody (1:5000, GE Healthcare) using iBind (Invitrogen). PCSK9 signals were detected by ECL (GE Healthcare) and visualized by autoradiography.
Proteins were then probed with a polyclonal rabbit antibody (1:3000) raised against the PCSK9 N-terminal peptide (^153[…]^168 (SEQ ID NO: 5)), followed with HRP-conjugated donkey anti-rabbit antibody (1:5000, GE Healthcare) using iBind (Invitrogen). PCSK9 signals were detected by ECL (GE Healthcare) and visualized by autoradiography.
On the technique in general: Immunoblotting shows a protein as a band on a membrane.

Assay [6] deals with T1, PCSK9Δhelix. As to the kind of experiment: SPR affinity measurements of peptide binding (Example 8). The note with it: for Kd: Table 10, binding to PCSK9Δhelix. How it is done:
A Biacore™ T100 or Biacore™ 8K was adjusted to 20° C. The system was primed into assay buffer which consisted of 25 mM HEPES, pH 7.5, 0.15 M NaCl, 0.005% (v/v) Tween® 20, 0.2 mM tris(2-carboxyethyl)phosphine and optionally contained 0.1% (w/v) carboxymethylated dextran (average MW 10 kDa) and 0.2% (w/v) PEG (average MW 3450 Da) in order to reduce potential non-specific binding. Peptides were assayed by capturing fresh PCSK9 or PCSK9Δhelix after each binding regeneration cycle by exploiting a histidine tag and an NTA-sensor chip. The surface was charged with (His)8-tagged PCSK9 (approximately 800 RU captured). […] Compound 19 and Compound 20 were assayed in six serial two-fold dilutions from 100 nM to 3.1 nM. All peptides were analyzed in duplicate by serial injection (50 μL/min for 1 min) of peptide dilution from low to high concentration. The surface was then stripped of target by injecting 0.5 M EDTA, pH 8.0. This sequence was repeated for each peptide binding cycle and blank control cycles.
All SPR data was recorded in duplicate for five, or more serial dilutions, except for the two fusion peptides, which produced extremely low fitting error. Multicycle data (i.e. separate curves for each concentration) and single cycle data (i.e. single curve with serial injection of each concentration) were double referenced and fitted to an interaction model using BIAevaluation software. Peptide binding to PCSK9 produced deviations from a simple 1:1 binding interaction model that required application of a two-state model for determination of Kd while interactions with PCSK9Δhelix conformed well to simple 1:1 binding. Kinetic curvature was poorly defined for rapidly dissociating peptides and in these cases Kd was estimated from a steady-state dose response plot. Kd values were reported with associated standard error, a measure of confidence in that parameter value.

[7] abbreviates: TR-FRET, Example 7, read-out: PCSK9Δhelix/Ab20 IC50.
Where [8] appears, read: Table 8D, disulfide-cyclized extension peptides.
Where [9] appears, read: TR-FRET counterscreen, Table 8D, * = some inhibition at highest concentrations, not sufficient to fit an IC50.
Setting [10] is: TR-FRET, Table 8D, disulfide-cyclized extension peptides, read-out: PCSK9Δhelix/Ab20 IC50.
Setting [11] is: Table 10, average ±S.D. of three experiments, read-out: Ab20 IC50.

Entries after “also recorded” stand apart in the source; their conditions may differ. Where two headings read alike, the source gives them in different places. Bridge positions count the residues as written; N and C are the ends. Peptide text beside a SMILES is read from it.

`CC[C@H](C)[C@@H]1NC(=O)[C@H](CCCNC(=N)N)NC(=O)[C@H](CCCCN)NC(=O)[C@H](CC(C)C)NC(=O)[C@H](CC(N)=O)NC(=O)[C@H](Cc2c[nH]c3ccccc23)NC(=O)[C@@H](NC(=O)CNC(=O)[C@H](CO)NC(=O)CNC(=O)[C@@H](NC(=O)[C@H](Cc2c[nH]c3ccccc23)NC(=O)[C@H](CC(=O)O)NC(=O)[C@H](CC(C)C)NC(=O)[C@H](Cc2ccc(O)cc2)NC(=O)[C@H](CCC(=O)O)NC(=O)[C@H](CCC(=O)O)NC(=O)[C@H](Cc2c[nH]c3ccccc23)NC(=O)[C@H](CO)NC(=O)[C@@H](NC(=O)[C@H](Cc2ccccc2)NC(=O)[C@@H](NC(=O)[C@@H](NC(C)=O)[C@@H](C)O)C(C)C)[C@@H](C)O)C(C)C)CSSC[C@@H](C(N)=O)NC(=O)CNC(=O)[C@H](CCC(N)=O)NC(=O)[C@H](CO)NC(=O)CNC1=O` [Compound 2] (Ac-TVFTSWEEYLDWVGSGCWNLKRIGSQGC-NH2; disulfide 17-28): in assay [1], the Kd – broadly, the concentration at which binding is half-saturated – is 0.00187 µM. The IC50 in assay [2] (counterscreen, Example 7) was over 50 µM; in assay [3] (setting [7]) it was 0.004 µM.
Take `CC[C@H](C)[C@@H]1NC(=O)[C@H](CCCNC(=N)N)NC(=O)[C@H](CCCCN)NC(=O)[C@H](CC(C)C)NC(=O)[C@H](CC(N)=O)NC(=O)[C@H](Cc2c[nH]c3ccccc23)NC(=O)[C@@H](NC(=O)CCCCCNC(=O)[C@@H](NC(=O)[C@H](Cc2c[nH]c3ccccc23)NC(=O)[C@H](CC(=O)O)NC(=O)[C@H](CC(C)C)NC(=O)[C@H](Cc2ccc(O)cc2)NC(=O)[C@H](CCC(=O)O)NC(=O)[C@H](CCC(=O)O)NC(=O)[C@H](Cc2c[nH]c3ccccc23)NC(=O)[C@H](CO)NC(=O)[C@@H](NC(=O)[C@H](Cc2ccccc2)NC(=O)[C@@H](NC(=O)[C@@H](NC(C)=O)[C@@H](C)O)C(C)C)[C@@H](C)O)C(C)C)CSSC[C@@H](C(N)=O)NC(=O)CNC(=O)[C@H](CCC(N)=O)NC(=O)[C@H](CO)NC(=O)CNC1=O` [Compound 17]: the “inhibition in the PCSK9/EGF(A) binding assay” value in assay [4] was “maintained potency”. Besides, the IC50 is 0.009 µM in assay [4] (Example 7); over 50 µM in assay [2] (counterscreen, Example 7); 0.001 µM in assay [3] (setting [7]). Moreover, the “Kd range for PCSK9Δhelix binding” value in assay [1] is “sub-nanomolar range”. Further, in assay [1], the Kd turned out to be 0.000123 µM. In assay [3], the “inhibition in the PCSK9Δhelix/Ab20 binding assay” value was “maintained potency”.
With `CC[C@H](C)[C@@H]1NC(=O)[C@H](CCCNC(=N)N)NC(=O)[C@H](CCC(N)=O)NC(=O)[C@H](CC(C)C)NC(=O)[C@H](CC(N)=O)NC(=O)[C@H](Cc2c[nH]c3ccccc23)NC(=O)[C@@H]2CCCN2C(=O)[C@H]([C@@H](C)CC)NC(=O)[C@H](Cc2ccccc2)NC(=O)[C@@H](NC(=O)CNC(=O)[C@H](CO)NC(C)=O)CSSC[C@@H](C(N)=O)NC(=O)[C@H](CC(C)C)NC(=O)[C@H](CC(C)C)NC(=O)CNC1=O` [Compound 29] (Ac-SGCFIPWNLQRIGLLC-NH2; disulfide 3-16), the IC50 was over 50 µM in assay [4] (setting [8]), over 50 µM in assay [2] (setting [9]) and 1.9 µM in assay [3] (setting [10]). In addition, the “effect on FXIa-mediated cleavage of the P′ helix of PCSK9-AAA” value (from here on “effect … of the P′ helix of PCSK9-AAA”) in assay [5] was “accelerated the cleavage reaction; also recorded: able to increase the FXIa-mediated cleavage; also recorded: strongly accelerated the cleavage”.
Consider `CC[C@H](C)[C@@H]1NC(=O)[C@H](CCCNC(=N)N)NC(=O)[C@H](CCC(N)=O)NC(=O)[C@H](CC(C)C)NC(=O)[C@H](CC(N)=O)NC(=O)[C@H](Cc2c[nH]c3ccccc23)NC(=O)[C@@H]2CCCN2C(=O)[C@H]([C@@H](C)CC)NC(=O)[C@H](Cc2ccccc2)NC(=O)[C@@H](NC(C)=O)CSSC[C@@H](C(N)=O)NC(=O)[C@H](CC(C)C)NC(=O)[C@H](CC(C)C)NC(=O)CNC1=O` [Compound 31] (Ac-CFIPWNLQRIGLLC-NH2; disulfide 1-14), for which the IC50 in assay [4] (setting [8]) is over 50 µM; in assay [2] (setting [9]) it was over 50 µM; in assay [3] (setting [10]) it was 2.4 µM. The Kd in assay [1] is 3.01 µM.
Take Ac-ALMPWNLVRIGLLR-NH2 [Compound 45]: the IC50 in assay [4] (Example 7) is over 50 µM; in assay [2] (counterscreen, Example 7), over 50 µM; in assay [3] (setting [7]) it was 2.02 µM. For the same compound, the dissociation constant Kd in assay [1] was 8.2 µM.
In the case of Ac-DLMPWNLVRIGLAR-NH2 [Compound 55], the IC50 is over 50 µM in assay [4] (Example 7); over 50 µM in assay [2] (counterscreen, Example 7); 9.7 µM in assay [3] (setting [7]). In addition, the equilibrium dissociation constant (Kd) in assay [1] was 2.8 µM.
In the case of Ac-DLMPWNLVRIGLLR-NH2 [Compound 35], the IC50 in assay [4] (Example 7) was over 50 µM; in assay [2] (counterscreen, Example 7) it was over 50 µM; in assay [3] (setting [7]) it was 4.8 µM; in assay [3] (setting [11]) it was 7.9 ± 0.1 µM. The compound also showed a Kd in assay [6] of 1.38 µM.
In the case of Ac-LMPWNLVRIGLLR-NH2 [Compound 50], the IC50 is over 50 µM in assay [4] (Example 7); over 50 µM in assay [2] (counterscreen, Example 7); 2.66 µM in assay [3] (setting [7]); 3.6 ± 0.2 µM in assay [3] (setting [11]). Moreover, the values for the dissociation constant (Kd) in assay [1] and in assay [6] were 1.6 µM and 0.47 µM, respectively.
Consider Ac-MPWNLVRIGLLR-NH2 [Compound 51], for which the IC50 in assay [4] (Example 7) is over 50 µM; in assay [2] (counterscreen, Example 7), over 50 µM; in assay [3] (setting [7]), 4.69 µM; in assay [3] (setting [11]), 6.6 ± 0.3 µM. Also, the figures for the Kd in assay [1] and in assay [6] were 2.7 µM and 1.4 µM, respectively.
As for “Ac-TVATSAEEYLLWV-NH2 [Pep2-8-ctrl, reference compound]”, the “effect … of the P′ helix of PCSK9-AAA” value is “did not prevent cleavage” in assay [5] and “did not inhibit cleavage” in assay [5] (listed as control peptide).
Ac-WNLVRIGLLR-NH2 [Compound 53]: the IC50 in assay [4] (Example 7) was over 50 µM; in assay [2] (counterscreen, Example 7) it was over 50 µM; in assay [3] (setting [7]) it was 33.1 µM; in assay [3] (setting [11]), 52.4 ± 3.4 µM. Besides, the Kd amounted to 33.8 µM in assay [1] and 14 µM in assay [6]. In assay [6] (Table 10, elimination of Pro4), the “reduction of binding affinity” value is reported as 10 fold.
With “EGFA-Fc: Fc fusion protein of the EGFA domain of LDLR”, the “effect … of the P′ helix of PCSK9-AAA” value in assay [5] is on record as “largely prevented cleavage”.
